# Test results as given in patent publication US20250115558A1, “PYRIDAZINE DERIVATIVES AND RELATED USES” (NodThera Limited, priority 2023, published 2025).
# pIC50: −log10 of the molar value. Counter-ions that a name gives are not always drawn.
# Tests used:
# [1] = tested on: THP-1; assay: THP-1 IC50 assay; type: cell-based; settings: Homo sapiens; THP-1 cells
# [2] = tested on: IL-1β release upon NLRP3 activation in peripheral blood mononuclear cells (PBMC); assay: PBMC IC50 Determination Assay; type: cell-based; settings: Homo sapiens; inhibition of IL-1β release; LPS-primed PBMC stimulated with ATP or nigericin
# Method: The compounds of the present disclosure were tested for their inhibitory activity against IL-1β release upon NLRP3 activation in peripheral blood mononuclear cells (PBMC).
# Protocol A. PBMC were isolated from buffy coats by density gradient centrifugation on Histopaque-1077 (Sigma, cat no. 10771). Isolated cells were seeded into the wells of a 96-well plate and incubated for 3 h with lipopolysaccharide (LPS). Following medium exchange, the compounds of the present disclosure were added (a single compound per well) and the cells were incubated for 30 min. Next, the cells were stimulated either with ATP (5 mM) or nigericin (10 μM) for 1 h and the cell culture media from the wells were collected for further analysis.
# The release of IL-1β into the media was determined by a quantitative detection of IL-1β in the media using an IL-1β enzyme-linked immunosorbent assay (ELISA) Ready-SET-Go!, eBioscience cat. No. 88-7261-88. Briefly, in a first step, high affinity binding plates (Corning, Costar 9018 or NUNC Maxisorp Cat No. 44-2404) were coated overnight at 4° C. with specific capture antibody included in the kit (anti-human IL-1β ref. 14-7018-68). Subsequently, plates were blocked with blocking buffer for 1 h at room temperature (rt) and after washing with a buffer (PBS with 0.05% Tween-20) incubated with protein standard and culture media. After 2 h of incubation at rt, plates were washed and incubated with biotinylated detection antibody included in the kit (anti-human IL-1β Biotin ref. 33-7110-68) for 1 h at rt. Plates were washed and incubated with HRP-streptavidin for 30 min at rt and washed again. The signal was developed after addition of 3,3′,5,5′-tetramethylbenzidine-peroxidase (TMB) until colour appeared and the reaction was stopped by 2 M H2SO4. A microplate spectrophotometer (BioTek) was used to detect signals with 450 nm. The detection range of IL-1β ELISA was […].
# Protocol B. PBMC were isolated from buffy coats by density gradient centrifugation on Histopaque-1077 (Sigma, cat no. 10771). Isolated cells were seeded into the wells (280,000 cells/well) of a 96-well plate and incubated for 3 h with lipopolysaccharide (LPS, 1 μg/mL diluted 1000× from a 1 mg/mL stock solution). The compounds of the present disclosure were added (a single compound per well) and the cells were incubated for 30 min. Next, the cells were stimulated with ATP (5 mM final concentration diluted 20× from a 100 mM stock solution) for 1 h and the cell culture media from the wells were collected for further analysis.
# The release of IL-1β into the media was determined by quantitative detection of IL-1β in the media using HTRF®, CisBio cat. No. 62HIL1BPEH. Briefly, cell culture supernatant were dispensed directly into the assay plate containing antibodies labelled with the HTRF® donor and acceptor. A microplate spectrophotometer (BMG) was used to detect signals at 655 nm and 620 nm. The detection range of IL-1β HTRF® was 39-6500 μg/mL.
structure (smiles),measurement,setting,value
"Cc1cc(C(F)(F)F)cc(O)c1-c1ccc(CN[C@H]2CCOC2)nn1 [Compound 33, (S)-3-methyl-2-(6-(((tetrahydrofuran-3-yl)amino)methyl)pyridazin-3-yl)-5-(trifluoromethyl)phenol]",pIC50,[1],> 6.30
same,pIC50,[2],> 6.30
"Cc1cc(C(F)(F)F)cc(O)c1-c1ccc(CN2CC[C@@H](F)C2)nn1 [Compound 34, (R)-2-(6-((3-Fluoropyrrolidin-1-yl)methyl)pyridazin-3-yl)-3-methyl-5-(trifluoromethyl)phenol]",pIC50,[1],5.52 to 6.00
same,pIC50,[2],5.52 to 6.00
"Cc1cc(C(F)(F)F)cc(O)c1-c1ccc(CN2CC[C@H](F)C2)nn1 [Compound 35, (S)-2-(6-((3-Fluoropyrrolidin-1-yl)methyl)pyridazin-3-yl)-3-methyl-5-(trifluoromethyl)phenol]",pIC50,[1],6.00 to 6.30
same,pIC50,[2],6.00 to 6.30
"Oc1cc(Cl)cc(Cl)c1-c1ccc(CNC2CCOCC2)nn1 [Compound 36, 3,5-Dichloro-2-(6-(((tetrahydro-2H-pyran-4-yl)amino)methyl)pyridazin-3-yl)phenol]",pIC50,[1],5.52 to 6.00
same,pIC50,[2],6.00 to 6.30
"Cc1cc(C(F)(F)F)cc(O)c1-c1ccc(CN[C@@H]2CCN(C)C(=O)C2)nn1 [Compound 37, (R)-4-(((6-(2-Hydroxy-6-methyl-4-(trifluoromethyl)phenyl)pyridazin-3-yl)methyl)amino)-1-methylpiperidin-2-one]",pIC50,[1],5.52 to 6.00
same,pIC50,[2],6.00 to 6.30
"Cc1cc(C(F)(F)F)cc(O)c1-c1ccc(CN2CCC(F)(F)C2)nn1 [Compound 38, 2-(6-((3,3-Difluoropyrrolidin-1-yl)methyl)pyridazin-3-yl)-3-methyl-5-(trifluoromethyl)phenol]",pIC50,[1],6.00 to 6.30
same,pIC50,[2],> 6.30
"CO[C@@H]1CCN(Cc2ccc(-c3c(C)cc(C(F)(F)F)cc3O)nn2)C1 [Compound 39, (R)-2-(6-((3-Methoxypyrrolidin-1-yl)methyl)pyridazin-3-yl)-3-methyl-5-(trifluoromethyl)phenol]",pIC50,[1],5.52 to 6.00
same,pIC50,[2],6.00 to 6.30
"CO[C@H]1CCN(Cc2ccc(-c3c(C)cc(C(F)(F)F)cc3O)nn2)C1 [Compound 40, (S)-2-(6-((3-Methoxypyrrolidin-1-yl)methyl)pyridazin-3-yl)-3-methyl-5-(trifluoromethyl)phenol]",pIC50,[1],5.52 to 6.00
same,pIC50,[2],6.00 to 6.30
"Cc1cc(C(F)(F)F)cc(O)c1-c1ccc(COC2CCCN(C)C2)nn1 (stereo not shown) [Compound 41, 3-Methyl-2-(6-(((1-methylpiperidin-3-yl)oxy)methyl)pyridazin-3-yl)-5-(trifluoromethyl)phenol hydrochloride]",pIC50,[1],5.52 to 6.00
same,pIC50,[2],6.00 to 6.30
"Oc1cc(C(F)(F)F)cc(F)c1-c1ccc(CNC2CCOCC2)nn1 [Compound 42, 3-Fluoro-2-(6-(((tetrahydro-2H-pyran-4-yl)amino)methyl)pyridazin-3-yl)-5-(trifluoromethyl)phenol]",pIC50,[1],5.00 to 5.52
same,pIC50,[2],5.00 to 5.52
"Cc1cc(C(F)(F)F)cc(O)c1-c1ccc(CN[C@@H]2CCC(=O)N(C)C2)nn1 [Compound 43, (R)-5-(((6-(2-Hydroxy-6-methyl-4-(trifluoromethyl)phenyl)pyridazin-3-yl)methyl)amino)-1-methylpiperidin-2-one]",pIC50,[1],6.00 to 6.30
same,pIC50,[2],> 6.30
"Cc1cc(C(F)(F)F)cc(O)c1-c1ccc(CN2CCOC2=O)nn1 [Compound 44, 3-((6-(2-Hydroxy-6-methyl-4-(trifluoromethyl)phenyl)pyridazin-3-yl)methyl)oxazolidin-2-one]",pIC50,[1],6.00 to 6.30
same,pIC50,[2],> 6.30
"Cc1cc(C(F)(F)F)cc(O)c1-c1ccc(COC2CCN(C)CC2)nn1 [Compound 45, 3-Methyl-2-(6-(((1-methylpiperidin-4-yl)oxy)methyl)pyridazin-3-yl)-5-(trifluoromethyl)phenol hydrochloride]",pIC50,[1],5.52 to 6.00
same,pIC50,[2],5.52 to 6.00
"Cc1cc(C(F)(F)F)cc(O)c1-c1ccc(CN2CC(C)CC2=O)nn1 (stereo not shown) [Compound 46, 1-((6-(2-Hydroxy-6-methyl-4-(trifluoromethyl)phenyl)pyridazin-3-yl)methyl)-4-methylpyrrolidin-2-one]",pIC50,[1],5.52 to 6.00
same,pIC50,[2],5.52 to 6.00
"Cc1cc(C(F)(F)F)cc(O)c1-c1ccc(CN2C(=O)CCC2(C)C)nn1 [Compound 47, 1-((6-(2-Hydroxy-6-methyl-4-(trifluoromethyl)phenyl)pyridazin-3-yl)methyl)-5,5-dimethylpyrrolidin-2-one]",pIC50,[1],5.00 to 5.52
same,pIC50,[2],5.52 to 6.00
"Cc1cc(C2CC2)cc(O)c1-c1ccc(CNC2CCOCC2)nn1 [Compound 48, 5-Cyclopropyl-3-methyl-2-(6-(((tetrahydro-2H-pyran-4-yl)amino)methyl)pyridazin-3-yl)phenol]",pIC50,[1],5.52 to 6.00
same,pIC50,[2],5.52 to 6.00
"Cc1cc(C(F)(F)F)cc(O)c1-c1ccc(CN[C@H]2CC(=O)N(C)C2)nn1 [Compound 49, (S)-4-(((6-(2-Hydroxy-6-methyl-4-(trifluoromethyl)phenyl)pyridazin-3-yl)methyl)amino)-1-methylpyrrolidin-2-one]",pIC50,[1],> 6.30
same,pIC50,[2],> 6.30
"Cc1cc(C(F)(F)F)cc(O)c1-c1ccc(CN[C@@H]2CC(=O)N(C)C2)nn1 [Compound 50, (R)-4-(((6-(2-Hydroxy-6-methyl-4-(trifluoromethyl)phenyl)pyridazin-3-yl)methyl)amino)-1-methylpyrrolidin-2-one]",pIC50,[1],5.00 to 5.52
same,pIC50,[2],5.52 to 6.00
"Cc1cc(C(F)(F)F)cc(O)c1-c1ccc(CNc2c(C)noc2C)nn1 [Compound 51, 2-(6-(((3,5-Dimethylisoxazol-4-yl)amino)methyl)pyridazin-3-yl)-3-methyl-5-(trifluoromethyl)phenol]",pIC50,[1],5.52 to 6.00
same,pIC50,[2],6.00 to 6.30
"Cc1cc(F)cc(O)c1-c1ccc(CNC2CCOCC2)nn1 [Compound 52, 5-Fluoro-3-methyl-2-(6-(((tetrahydro-2H-pyran-4-yl)amino)methyl)pyridazin-3-yl)phenol]",pIC50,[1],5.00 to 5.52
same,pIC50,[2],5.00 to 5.52
"Cc1cc(Cl)cc(O)c1-c1ccc(CN[C@@H]2CCOC2)nn1 [Compound 53, (R)-5-Chloro-3-methyl-2-(6-(((tetrahydrofuran-3-yl)amino)methyl)pyridazin-3-yl)phenol]",pIC50,[1],> 6.30
same,pIC50,[2],> 6.30
"Cc1cc(Cl)cc(O)c1-c1ccc(CN2CCCC2)nn1 [Compound 54, 5-Chloro-3-methyl-2-(6-(pyrrolidin-1-ylmethyl)pyridazin-3-yl)phenol]",pIC50,[1],6.00 to 6.30
same,pIC50,[2],> 6.30
"Cc1cc(C(F)(F)F)cc(O)c1-c1ccc(CNc2conc2C)nn1 [Compound 55, 3-Methyl-2-(6-(((3-methylisoxazol-4-yl)amino)methyl)pyridazin-3-yl)-5-(trifluoromethyl)phenol]",pIC50,[1],6.00 to 6.30
same,pIC50,[2],6.00 to 6.30
"Cc1cc(Cl)cc(O)c1-c1ccc(CNc2c(C)noc2C)nn1 [Compound 56, 5-Chloro-2-(6-(((3,5-dimethylisoxazol-4-yl)amino)methyl)pyridazin-3-yl)-3-methylphenol]",pIC50,[1],5.52 to 6.00
same,pIC50,[2],6.00 to 6.30
"Cc1cc([N+](=O)[O-])cc(O)c1-c1ccc(CNC2CCOCC2)nn1 [Compound 57, 3-Methyl-5-nitro-2-(6-(((tetrahydro-2H-pyran-4-yl)amino)methyl)pyridazin-3-yl)phenol hydrochloride]",pIC50,[1],5.00 to 5.52
same,pIC50,[2],5.52 to 6.00
"Cc1cc(Cl)cc(O)c1-c1ccc(CN(C)[C@@H]2CCOC2)nn1 [Compound 58, (R)-5-Chloro-3-methyl-2-(6-((methyl(tetrahydrofuran-3-yl)amino)methyl)pyridazin-3-yl)phenol]",pIC50,[1],5.52 to 6.00
same,pIC50,[2],5.52 to 6.00
